Earlier results on one compound are cited in US10413512B2, “Nicotine-containing granulate” (priority 2008, dated 2019).

For data set [1] the following is noted: base form.
For data set [2] the following is noted: in vivo.
For data set [3] the following is noted: oral administration.

As to `CN1CCC[C@H]1c1cccnc1` [Nicotine, (S)-3-(1-Methyl-2-pyrrolidinyl)pyridine], in data set [1], the miscibility with water entry is “miscible with water”. Besides, the “half life in the body” value in data set [2] is reported as “around two”. For the same compound, the oral bioavailability entry in data set [3] is recorded as “about 30%”.
